{
  "source": "patent US11723877B2",
  "about": "“Microencapsulation process and product” (SPI PHARMA, INC., priority 2010, dated 2023)",
  "key": {"[1]": {"assay": "Dissolution of orally dispersible ibuprofen powder, USP apparatus IV flow through cell, phosphate buffer pH 7.2", "format": "physicochemical", "conditions": "phosphate buffer pH 7.2, 37° C., 16 mL/min, 900 mL, ODP 200 mg, average of two", "description": "A USP apparatus IV flow through cell was used to measure the dissolution of three orally dispersible powder blends of Ibuprofen. Powder blends were made up of: Example 6 (SPI Pharma); uncoated Ibuprofen 50 (BASF, Florham Park, N.J.); and Dasan Medichem (Soul, Korea) taste-masked Ibuprofen. Each sample was weighed and mixed by the process of spatulation until mixed. This mixture was passed through #30 mesh ASTM and packed in stick packs.\n(§1) An amount of sample equivalent to contain 200 mg of Ibuprofen was weighed out and placed in the bead mixture of the flow through cell. At a rate of 16 ml/min, a 37° C. pH 7.2 phosphate buffer was pumped through cell and the effluent from the cell was collected in a reservoir vessel and samples removed for subsequent analysis in HPLC for Ibuprofen content at the time point specified. The data is an average of two determinations."}, "physchem": {"assay": "physchem", "conditions": "aqueous buffer"}, "[2]": {"assay": "Acetaminophen dissolution, USP method (900 mL water, 50 rpm, Apparatus 2)", "format": "physicochemical", "conditions": "first of five data columns, no own time in head (taken as 0 min)", "description": "Acetaminophen dissolution was compared between microcapsules prepared from Run #2 and Run #4, an uncoated acetaminophen standard and a commercial acetaminophen coated with ethylcellulose by USP dissolution method for Acetaminophen (900 mL water, 50 rpm, Apparatus 2)."}, "[3]": {"assay": "Dissolution of orally dispersible acetaminophen powder, USP apparatus IV flow through cell, phosphate buffer pH 5.8", "format": "physicochemical", "conditions": "phosphate buffer pH 5.8, 37° C., 16 mL/min, 900 mL, ODP 160 mg, average of two", "description": "A USP apparatus IV flow through cell was used to measure the dissolution of three orally dispersible powder blends of acetaminophen. Powder blends were made up of: Example 7 (SPI Pharma); uncoated Acetaminophen (Covidien, St. Louis, Mo.)) special granular; and Eurand (Dayton, Ohio) taste-masked Acetaminophen. Each sample was weighed and mixed by the process of spatulation until mixed. This mixture was passed through #30 mesh ASTM and packed in stick packs.\nas §1, with “160” for “200”, “Acetaminophen” for “Ibuprofen”, “5.8” for “7.2”"}},
  "data": [
    {"smiles": "CC(C)Cc1ccc(C(C)C(=O)O)cc1", "note": "(centres unmarked) [Plain API, Ibuprofen]", "values": [
      {"measurement": "Ibuprofen dissolution %", "setting": "[1]; 5 min", "value": 70, "unit": "%"},
      {"measurement": "Ibuprofen dissolution %", "setting": "[1]; 10 min", "value": 88, "unit": "%"},
      {"measurement": "Ibuprofen dissolution %", "setting": "[1]; 20 min", "value": 91, "unit": "%"},
      {"measurement": "Ibuprofen dissolution %", "setting": "[1]; 30 min", "value": 94, "unit": "%"},
      {"measurement": "Ibuprofen dissolution %", "setting": "[1]; 45 min", "value": 94, "unit": "%"},
      {"measurement": "Ibuprofen dissolution %", "setting": "[1]; 60 min", "value": 94, "unit": "%"}
    ]},
    {"smiles": "CC(C)Cc1ccc(C(C)C(=O)O)cc1", "note": "(centres unmarked) [uncoated ibuprofen, ibuprofen]", "values": [
      {"measurement": "solubility", "setting": "physchem", "value": "< 1000", "unit": "µM"}
    ]},
    {"smiles": "CC(=O)Nc1ccc(O)cc1", "note": "[Uncoated Acetaminophen STD, Acetaminophen]", "values": [
      {"measurement": "Percent (%) Drug Released", "setting": "[2]", "value": 0, "unit": "%"}
    ]},
    {"smiles": "CC(=O)Nc1ccc(O)cc1", "note": "[Uncoated Acetaminophen, Acetaminophen]", "values": [
      {"measurement": "Acetaminophen dissolution %", "setting": "[3]; 5 min", "value": 95, "unit": "%"},
      {"measurement": "Acetaminophen dissolution %", "setting": "[3]; 10 min", "value": 96, "unit": "%"},
      {"measurement": "Acetaminophen dissolution %", "setting": "[3]; 15 min", "value": 96, "unit": "%"},
      {"measurement": "Acetaminophen dissolution %", "setting": "[3]; 30 min", "value": 96, "unit": "%"},
      {"measurement": "Acetaminophen dissolution %", "setting": "[3]; 45 min", "value": 96, "unit": "%"},
      {"measurement": "Acetaminophen dissolution %", "setting": "[3]; 60 min", "value": 96, "unit": "%"}
    ]}
  ]
}
